Results as given in the supplement of paper PMC11208160.

Test: recombinant barcode read abundance after kanamycin selection (control-corrected) (log10(CPM+1)); higher = more efficient recombination; sequences stand for … in AGTGCAGAGAAAATCGGCCAGTTTTCTCTGCCTGCAGTCCGCATGCCGT…AGATTTATGCAGCGGACTGCCTTTCTCCCAAAGTGATAAACCGGACAGTATCATGGACCGGTTTTCCCGGTAATCCGTATTTGCAAGGTTGGTTTCACT; site = the 11-nt target
Procedure, shortened: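 Reported as log10(CPM+1), each value stands for recombination efficiency. That efficiency is the averaged, control-corrected counts per million of barcodes found at recombinant junctions. Cells from a pooled E. coli library pairing targets with IS621 bridge RNA target-binding loops were plated twice on chloramphenicol/ampicillin LB agar (control) and twice on chloramphenicol/ampicillin/kanamycin with 0.1 mM IPTG.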
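Note: IS621 recombinase and bridge RNA in Escherichia coli cells.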

Sequence | recombinant barcode read abundance (log10)
TGCGCTACTTGGGTTCTAACCTGTTGCCT (site TGCGCTACTAG) | 0.25
TGCGGAGCTTGGGTTCTAACCTGTTGCCG (site GATTATACTAA) | 0.0782
TGCGGAGCTTGGGTTCTAACCTGTTGCCG (site TGCGGAGCTCG) | 0.726
TGCGTCCCTTGGGTTCTAACCTGTTGCCT (site TGAGTCCCTAG) | 0.405
TGCGTCCCTTGGGTTCTAACCTGTTGCCT (site TGCGTCCCTAG) | 0.291
TGCGTCCCTTGGGTTCTAACCTGTTGCCT (site TGGGTCCCTAG) | 0.117
TGCGTCCCTTGGGTTCTAACCTGTTGCCT (site TGTGTCCCTAG) | 0.0158
TGCTCCTCTTGGGTTCTAACCTGTTGCCT (site AGCTCCTCTAG) | 0.0656
TGCTCCTCTTGGGTTCTAACCTGTTGCCT (site CGCTCCTCTAG) | 0.153
TGCTCCTCTTGGGTTCTAACCTGTTGCCT (site GGCTCCTCTAG) | 0.109
TGCTCCTCTTGGGTTCTAACCTGTTGCCT (site TGCTCCTCTAG) | 0.274
TGCTTCCCTTGGGTTCTAACCTGTTGCGG (site TGCTTCCCTCC) | 0.594
TGCTTCCCTTGGGTTCTAACCTGTTGCGG (site TGGTGCCCTCC) | 0.114
TGGACGACTTGGGTTCTAACCTGTTGCTT (site GATCGAGCTCT) | 0.0173
TGGACGACTTGGGTTCTAACCTGTTGCTT (site TGGACGACTAA) | 0.592
TGGACGCCTTGGGTTCTAACCTGTTGCCT (site TGGACGCCTAG) | 0.252
TGGACGCCTTGGGTTCTAACCTGTTGCCT (site TGGACGTCTAG) | 0.0267
TGGAGCACTTGGGTTCTAACCTGTTGCCT (site TGGAACACTAG) | 0
TGGAGCACTTGGGTTCTAACCTGTTGCCT (site TGGACCACTAG) | 0.107
TGGAGCACTTGGGTTCTAACCTGTTGCCT (site TGGAGCACTAG) | 1.11
TGGAGCACTTGGGTTCTAACCTGTTGCCT (site TGGATCACTAG) | 0.0861
TGGAGCCCTTGGGTTCTAACCTGTTGCAA (site TGGAGCCCTAT) | 0.0946
TGGAGCCCTTGGGTTCTAACCTGTTGCAA (site TGGAGCCCTCT) | 0.0367
TGGAGCCCTTGGGTTCTAACCTGTTGCAA (site TGGAGCCCTGT) | 0.263
TGGAGCCCTTGGGTTCTAACCTGTTGCAA (site TGGAGCCCTTT) | 0.155
TGGAGCCCTTGGGTTCTAACCTGTTGCAT (site TGGAGCCCTAT) | 0.211

Sequence | recombinant barcode read abundance (log10)
TGGAGCCCTTGGGTTCTAACCTGTTGCAT (site TGGAGCCCTCT) | 0.053
TGGAGCCCTTGGGTTCTAACCTGTTGCAT (site TGGAGCCCTGT) | 0.0522
TGGAGCCCTTGGGTTCTAACCTGTTGCAT (site TGGAGCCCTTT) | 0.15
TGGATGCCTTGGGTTCTAACCTGTTGCCT (site TGAATGACTAG) | 0.0485
TGGATGCCTTGGGTTCTAACCTGTTGCCT (site TGGATGCCTAG) | 0.884
TGGATTGCTTGGGTTCTAACCTGTTGCCT (site TGGATTCCTAG) | 0.0162
TGGATTGCTTGGGTTCTAACCTGTTGCCT (site TGGATTGCTAG) | 0.74
TGGCACCCTTGGGTTCTAACCTGTTGCGG (site TGGAACCCTCC) | 0.129
TGGCACCCTTGGGTTCTAACCTGTTGCGG (site TGGCACCCTCC) | 2.42
TGGCACTCTTGGGTTCTAACCTGTTGCTT (site AGGCACTCTCA) | 0.177
TGGCACTCTTGGGTTCTAACCTGTTGCTT (site TGGCACTCTAA) | 1.02
TGGCCAACTTGGGTTCTAACCTGTTGCGT (site TAGTCAACTAC) | 0.434
TGGCCAACTTGGGTTCTAACCTGTTGCGT (site TGGCCAACTAC) | 1.84
TGGCGTCCTTGGGTTCTAACCTGTTGCCT (site TGGAGTCCTAG) | 0.0306
TGGCGTCCTTGGGTTCTAACCTGTTGCCT (site TGGCGTCCTAG) | 0.963
TGGCGTCCTTGGGTTCTAACCTGTTGCCT (site TGGGGTCCTAG) | 0.0381
TGGCGTCCTTGGGTTCTAACCTGTTGCCT (site TGGTGTCCTAG) | 0.116
TGGGACTCTTGGGTTCTAACCTGTTGCCT (site TGAGACTCTAG) | 2.44
TGGGACTCTTGGGTTCTAACCTGTTGCCT (site TGCGACTCTAG) | 0.00712
TGGGACTCTTGGGTTCTAACCTGTTGCCT (site TGGGACTCTAG) | 2.64
TGGGACTCTTGGGTTCTAACCTGTTGCCT (site TGTGACTCTAG) | 0.108
TGGGCACCTTGGGTTCTAACCTGTTGCTT (site GGGGCACCTTA) | 0.175
TGGGCACCTTGGGTTCTAACCTGTTGCTT (site TGGGCACCTAA) | 1.37
TGGGGTACTTGGGTTCTAACCTGTTGCCT (site TGGAGTACTAG) | 0.141
TGGGGTACTTGGGTTCTAACCTGTTGCCT (site TGGCGTACTAG) | 0.097
TGGGGTACTTGGGTTCTAACCTGTTGCCT (site TGGGGTACTAG) | 1.11

Sequence | recombinant barcode read abundance (log10)
TGGGGTACTTGGGTTCTAACCTGTTGCCT (site TGGTGTACTAG) | 0.177
TGGGTCCCTTGGGTTCTAACCTGTTGCTT (site TGAGTCCCTTA) | 0.272
TGGGTCCCTTGGGTTCTAACCTGTTGCTT (site TGGGTCCCTAA) | 2.1
TGGTACGCTTGGGTTCTAACCTGTTGCCT (site TGGTACGCTAG) | 1.45
TGGTACGCTTGGGTTCTAACCTGTTGCCT (site TGGTCCGCTAG) | 0.235
TGGTACGCTTGGGTTCTAACCTGTTGCCT (site TGGTGCGCTAG) | 0.15
TGGTACGCTTGGGTTCTAACCTGTTGCCT (site TGGTTCGCTAG) | 0.24
TGGTGCCCTTGGGTTCTAACCTGTTGCGG (site TGCTTCCCTCC) | 0.109
TGGTGCCCTTGGGTTCTAACCTGTTGCGG (site TGGTGCCCTCC) | 1.45
TGGTGTACTTGGGTTCTAACCTGTTGCCT (site TGGAGTACTAG) | 0.0346
TGGTGTACTTGGGTTCTAACCTGTTGCCT (site TGGCGTACTAG) | 0.426
TGGTGTACTTGGGTTCTAACCTGTTGCCT (site TGGGGTACTAG) | 0.143
TGGTGTACTTGGGTTCTAACCTGTTGCCT (site TGGTGTACTAG) | 0.461
TGTAAGACTTGGGTTCTAACCTGTTGCAG (site GAACGCTCTAA) | 0.0634
TGTAAGACTTGGGTTCTAACCTGTTGCAG (site TGTAAGACTCT) | 0.644
TGTAAGACTTGGGTTCTAACCTGTTGCTG (site TGTAAGACTCA) | 0.505
TGTAAGACTTGGGTTCTAACCTGTTGCTG (site TGTAAGGCTAA) | 0.015
TGTAGAGCTTGGGTTCTAACCTGTTGCCG (site TGTAGAGCTCG) | 0.243
TGTAGAGCTTGGGTTCTAACCTGTTGCCG (site TGTCGAGCTCG) | 0.483
TGTAGAGCTTGGGTTCTAACCTGTTGCCG (site TGTGGAGCTCG) | 0
TGTAGAGCTTGGGTTCTAACCTGTTGCCG (site TGTTGAGCTCG) | 0.258
TGTAGATCTTGGGTTCTAACCTGTTGCAT (site TGTAGATCTAT) | 0.152
TGTAGATCTTGGGTTCTAACCTGTTGCAT (site TGTTGACCTAT) | 0.15
TGTAGTCCTTGGGTTCTAACCTGTTGCTT (site TGTAGTCCTAA) | 0.0506
TGTAGTCCTTGGGTTCTAACCTGTTGCTT (site TGTAGTCCTAC) | 0.264
